Laboratory results: patent US6723680B2, “Composition for regulation of gametophytic self-incompatibility, control method of gametophytic self-incompatibility of a plant and the plant self-pollinated by using said control method” (Istech Co., Ltd., priority 2000, dated 2004)
Where two headings read alike, the source gives them in different places.

Columns and labels:
[1] = test system: pollen tube of Fuji apple; assay: Pollen tube elongation of self-pollen in medium with style-specific RNase and inhibitor; assay type: cell-based; conditions: 10 units S1 RNase in medium
Protocol: To investigate the effect of the style-specific S1 RNase purified in the example 1-4 on pollen tube elongation of self-pollen, experiment was conducted as follows. First of all, only the self-pollen made from a stamen of Fuji apple was isolated. The isolated pollen was cultured in the medium for pollen tube elongation, which was added with 0, 2, 4 and 6 units (mg^−1min^−1ml) of S1 RNase purified in the example 1-4, respectively, in a dark condition for 24 hours at 28° C. The medium for pollen tube elongation is composed of 20 mM Mes-KOH (pH 6.0), 0.07% Ca(NO3)2·4H2O, 0.02% MgSO4·7H2O, 0.01% KNO3, 0.01% H3BO3 and 2% sucrose, and elongates pollen tube artificially.
10 units (mg^−1min^−1ml^−1) of the style-specific S1 RNase was added to the medium for pollen tube elongation, and ZnSO4 and CuSO4 were added thereto at 1 mM, 2 mM and 5 mM respectively. And then, pollen tube was cultured according to the same method as the Example 2.

wild-type tomato = assay type: in vivo; conditions: for Fruition rate: siloxane spreader 0.0335%, 4 days before full blooming; for concentration in which harmful effect of a medicine occurred: in vivo
Protocol: To investigate the fruition rate and harmful effects of a medicine according to the concentration of style-specific RNase inhibitors, ZnSO4 and CuSO4, style-specific RNase inhibitors of the present invention, were treated to wild-type tomato with various concentration in 4 days before full blooming.
Furthermore, to maximize the efficiency of the style-specific RNase inhibitor of the present invention as fruition control agents, ZnSO4 or CuSO4 was mixed with spreader of hexaconazole, siloxane and alkylaryl polyethoxylate class according to most appropriate usage amount by the manufacturer, and treated.
A composition mixed with the spreader of siloxane class (brand name:silhouette, Dongbu precision chemical company, Korea) to 0.0335% was prepared and the composition was treated to wild-type tomato.

Fuji apple [2] = assay: Fruition rate of Fuji apple according to blooming period of treatment; assay type: in vivo; conditions: 1 mM with siloxane spreader 0.0335%
Protocol: To test the effect of a style-specific RNase inhibitor of the present invention in a practical cultivating environment, the style-specific RNase of the present invention was treated to Fuji apple that was cultivated in a greenhouse for research (located in Cheongsong-gun, Kyungsangpukdo, Republic of Korea). In the present invention, the experiment was performed under the environmental condition that can keep the Fuji apple, a representative plant having gametophytic self-incompatibility, a single species genetically. To determine the treatment period of a style-specific RNase inhibitor, the inhibitor was treated at the early blooming period (budding formation period˜prior to full blooming), the middle blooming period (full blooming) and the late blooming period (1 day after full blooming˜falling period of petal) respectively. A composition, which was manufactured by mixing the spreader of siloxane class (brand name: silhouette, Dongbu precision chemical company, Korea) with the inhibitor to the concentration of 0.0335%, was treated under the same condition of the Example 5-1, and the results were shown in Table 5.

Fuji apple [3] = assay type: in vivo; conditions: for Fruition rate: siloxane spreader 0.0335%, 4 days before full blooming; for concentration in which harmful effect of a medicine occurred: in vivo
Protocol: To investigate the fruition rate and harmful effect of a medicine according to the concentration of style-specific RNase inhibitors, ZnSO4 and CuSO4, style-specific RNase inhibitors of the present invention, were treated to Fuji apple with various concentration in 4 days before full blooming.
Furthermore, to maximize the efficiency of the style-specific RNase inhibitor of the present invention as fruition control agents, ZnSO4 or CuSO4 was mixed with the spreader of siloxane class (brand name silhouette, Dongbu precision chemical company, Korea) at 0.0335%, and treated to the Fuji apple.

For `O=S(=O)([O-])[O-].[Zn+2]` [ZnSO4], the “elongation of pollen tube” value ([1]; 1 mM inhibitor) was “elongated again”, the “elongation of pollen tube” value ([1]; 2 mM inhibitor) was “elongated again” and the Fruition rate (wild-type tomato; 20 ppm) was 0%. It also gave a Fruition rate (wild-type tomato; 40 ppm) of 13%, a Fruition rate (wild-type tomato; 60 ppm) of 31% and a Fruition rate (wild-type tomato; 80 ppm) of 61%. The Fruition rate (wild-type tomato; 100 ppm) was 99%, the Fruition rate (wild-type tomato; 200 ppm) was 98% and the Fruition rate (wild-type tomato; 300 ppm) was 93%. For the same compound, the Fruition rate (wild-type tomato; 400 ppm) was 88%, the Fruition rate (wild-type tomato; 500 ppm) was 85% and the Fruition rate (wild-type tomato; 600 ppm) was 84%. For the same compound, the Fruition rate (wild-type tomato; 700 ppm) was 74%, the Fruition rate (wild-type tomato; 800 ppm) was 71% and the Fruition rate (wild-type tomato; 900 ppm) was 62%. It also gave a Fruition rate (wild-type tomato; 1000 ppm) of 0%, a Fruition rate (wild-type tomato; 1100 ppm) of 0% and a Fruition rate (wild-type tomato; 1200 ppm) of 0%. For the same compound, the Fruition rate (wild-type tomato; 1300 ppm) was 0%, the Fruition rate (wild-type tomato; 1400 ppm) was 0% and the Fruition rate (wild-type tomato; 1500 ppm) was 0%. For the same compound, the “concentration in which harmful effect of a medicine occurred” value (“concentration in which harmful effect” below) (wild-type tomato) was ≥ 900 ppm, the Fruition rate (Fuji apple [2]; 1 day after full blooming) was 0 and the Fruition rate (Fuji apple [2]; 1 day before blooming) was 0. For the same compound, the Fruition rate (Fuji apple [2]; 2 days after full blooming) was 0, the Fruition rate (Fuji apple [2]; 2 days before blooming) was >32% and the Fruition rate (Fuji apple [2]; 3 days before blooming) was >71%. For the same compound, the Fruition rate (Fuji apple [2]; 4 days before blooming) was >93%, the Fruition rate (Fuji apple [2]; 5 days before blooming) was >92% and the Fruition rate (Fuji apple [2]; full blooming) was 0. It also gave a Fruition rate (Fuji apple [3]; 20 ppm) of 0%, a Fruition rate (Fuji apple [3]; 40 ppm) of 5% and a Fruition rate (Fuji apple [3]; 60 ppm) of 17%. For the same compound, the Fruition rate (Fuji apple [3]; 80 ppm) was 36%, the Fruition rate (Fuji apple [3]; 100 ppm) was 72% and the Fruition rate (Fuji apple [3]; 200 ppm) was 79%. It also gave a Fruition rate (Fuji apple [3]; 300 ppm) of 93%, a Fruition rate (Fuji apple [3]; 400 ppm) of 88% and a Fruition rate (Fuji apple [3]; 500 ppm) of 85%. The Fruition rate (Fuji apple [3]; 600 ppm) was 84%, the Fruition rate (Fuji apple [3]; 700 ppm) was 74% and the Fruition rate (Fuji apple [3]; 800 ppm) was 70%. For the same compound, the Fruition rate (Fuji apple [3]; 900 ppm) was 44%, the Fruition rate (Fuji apple [3]; 1000 ppm) was 27% and the Fruition rate (Fuji apple [3]; 1100 ppm) was 9%. For the same compound, the Fruition rate (Fuji apple [3]; 1200 ppm) was 0%, the Fruition rate (Fuji apple [3]; 1300 ppm) was 0% and the Fruition rate (Fuji apple [3]; 1400 ppm) was 0%. The Fruition rate (Fuji apple [3]; 1500 ppm) was 0% and the “concentration in which harmful effect” value (Fuji apple [3]) was ≥ 900 ppm.

For `O=S(=O)([O-])[O-].[Cu+2]` [CuSO4], the “elongation of pollen tube” value ([1]; 1 mM inhibitor) was “elongated again”, the Fruition rate (wild-type tomato; 20 ppm) was 0% and the Fruition rate (wild-type tomato; 40 ppm) was 15%. For the same compound, the Fruition rate (wild-type tomato; 60 ppm) was 41%, the Fruition rate (wild-type tomato; 80 ppm) was 59% and the Fruition rate (wild-type tomato; 100 ppm) was 97%. The Fruition rate (wild-type tomato; 200 ppm) was 92%, the Fruition rate (wild-type tomato; 300 ppm) was 88% and the Fruition rate (wild-type tomato; 400 ppm) was 85%. The Fruition rate (wild-type tomato; 500 ppm) was 77%, the Fruition rate (wild-type tomato; 600 ppm) was 73% and the Fruition rate (wild-type tomato; 700 ppm) was 73%. It also gave a Fruition rate (wild-type tomato; 800 ppm) of 44%, a Fruition rate (wild-type tomato; 900 ppm) of 16% and a Fruition rate (wild-type tomato; 1000 ppm) of 7%. It also gave a Fruition rate (wild-type tomato; 1100 ppm) of 0%, a Fruition rate (wild-type tomato; 1200 ppm) of 0% and a Fruition rate (wild-type tomato; 1300 ppm) of 0%. For the same compound, the Fruition rate (wild-type tomato; 1400 ppm) was 0%, the Fruition rate (wild-type tomato; 1500 ppm) was 0% and the “concentration in which harmful effect” value (wild-type tomato) was ≥ 800 ppm. The Fruition rate (Fuji apple [2]; 1 day after full blooming) was 0, the Fruition rate (Fuji apple [2]; 1 day before blooming) was 0 and the Fruition rate (Fuji apple [2]; 2 days after full blooming) was 0. The Fruition rate (Fuji apple [2]; 2 days before blooming) was >24%, the Fruition rate (Fuji apple [2]; 3 days before blooming) was >70% and the Fruition rate (Fuji apple [2]; 4 days before blooming) was >86%. For the same compound, the Fruition rate (Fuji apple [2]; 5 days before blooming) was >91%, the Fruition rate (Fuji apple [2]; full blooming) was 0 and the Fruition rate (Fuji apple [3]; 20 ppm) was 0%. The Fruition rate (Fuji apple [3]; 40 ppm) was 0%, the Fruition rate (Fuji apple [3]; 60 ppm) was 11% and the Fruition rate (Fuji apple [3]; 80 ppm) was 39%. The Fruition rate (Fuji apple [3]; 100 ppm) was 70%, the Fruition rate (Fuji apple [3]; 200 ppm) was 76% and the Fruition rate (Fuji apple [3]; 300 ppm) was 88%. The Fruition rate (Fuji apple [3]; 400 ppm) was 85%, the Fruition rate (Fuji apple [3]; 500 ppm) was 77% and the Fruition rate (Fuji apple [3]; 600 ppm) was 73%. It also gave a Fruition rate (Fuji apple [3]; 700 ppm) of 73%, a Fruition rate (Fuji apple [3]; 800 ppm) of 52% and a Fruition rate (Fuji apple [3]; 900 ppm) of 31%. For the same compound, the Fruition rate (Fuji apple [3]; 1000 ppm) was 21%, the Fruition rate (Fuji apple [3]; 1100 ppm) was 11% and the Fruition rate (Fuji apple [3]; 1200 ppm) was 0%. For the same compound, the Fruition rate (Fuji apple [3]; 1300 ppm) was 0%, the Fruition rate (Fuji apple [3]; 1400 ppm) was 0% and the Fruition rate (Fuji apple [3]; 1500 ppm) was 0%. The “concentration in which harmful effect” value (Fuji apple [3]) was ≥ 800 ppm.
